Non-standard residues stand in square brackets, D forms with d. No end group written: not given here. Aun = NCCCCCCCCCCC(=O)O

To fix the notation:
T1: CXCR3 receptor (CXCR-3/300-19 cells) (Homo sapiens, UniProt P49682)
T1 construct: expressed in transfected cells; host or cells: 300-19 mouse pre-B lymphocytes (CXCR-3/300-19)
T1 sequence (P49682 1-368): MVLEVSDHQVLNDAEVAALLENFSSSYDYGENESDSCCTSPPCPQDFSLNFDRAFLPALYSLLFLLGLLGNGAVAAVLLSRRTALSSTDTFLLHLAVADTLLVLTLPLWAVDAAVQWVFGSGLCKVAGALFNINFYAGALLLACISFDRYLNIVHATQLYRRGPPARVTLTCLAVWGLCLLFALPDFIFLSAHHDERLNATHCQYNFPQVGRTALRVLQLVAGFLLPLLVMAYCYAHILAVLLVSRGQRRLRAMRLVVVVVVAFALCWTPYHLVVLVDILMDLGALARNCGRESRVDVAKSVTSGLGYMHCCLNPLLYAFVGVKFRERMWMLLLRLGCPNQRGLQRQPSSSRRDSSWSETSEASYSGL

B1: rBRAK: recombinant BRAK (CXCL14 chemokine) (protein, UniProt O95715 35-111, looked up)
C-X-C motif chemokine 14: SKCKCSRKGPKIRYSDVKKLEMKPKYPHCEEKMVIITTKSVSRYRGQEHCLHPKLQSTKRFIKWYNAWNEKRRVYEE

For the first assay, the target named is T1, CXCR3 receptor (CXCR-3/300-19 cells). In words: [Ca2+]i mobilization by IP-10 analogs, FLIPR Calcium 3 kit, CXCR-3/300-19 cells. In kind it is cell-based. The settings on record: 100 μM (FIG. 1); three independent experiments. As to the method:
Binding and Calcium Mobilization: Suspensions of CXCR-3/300-19 cells were used to assess binding and intracellular calcium mobilization induced by IP-10 analogs. These are mouse pre-B lymphocytes transfected with the CXCR3 receptor, (Moser, et al). The cells were washed in RPMI media and resuspended in RPMI media supplemented with 10% FCS, then plated at 1.2×10^5 cells per well of 96-well black wall/clear bottom plates coated with poly-D-lysine (Becton Dickinson) and loaded with 100 uL fluorescent calcium indicator FLIPR Calcium 3 assay kit component A (Molecular Probes) for 1 hr at 37° C. The cells on the plates were then spun at 1000 rpm for 15 minutes at room temperature.
Each of the sequences successfully bound to the cellular receptors. The intracellular calcium mobilization in response to 25 uL (0-100000 nM final concentrations) of the appropriate and various concentrations of analogue was measured at 37° C. by monitoring fluorescence as a function of time in all the wells using the Flexstation Fluorometric Imaging Plate Reader (Molecular Devices). All analogues were run simultaneously with rhIP-10 (R&D Systems) as the standard. Table 7 provides the dosage effect of the binding of each of the IP-10 analogs on the calcium mobilization activity of the cells.
Regarding “acetylated-IP-10-(1-16)-[linker]-IP-10-(66-78) (Ac-VPLSRTVRCTCISISN[Aun]LKAVSKEMSKRSP; cysteine pairing not given here) [SEQ ID NO:1641, IP-10 analog, numbering of U.S. App; 11/590,210]”, the “increase in intracellular calcium mobilization” value is ~500%.

The same assay, now with this note: dosage 1.2 μM; CXCR-3/300-19 cells.
For the molecule “acetylated-IP-10-(1-16)-[linker]-IP-10-(66-78) (Ac-VPLSRTVRCTCISISN[Aun]LKAVSKEMSKRSP; cysteine pairing not given here) [SEQ ID NO:1641, IP-10 analog, numbering of U.S. App; 11/590,210]”, the calcium mobilization activity of the cells was found to be 12.6%.

The same assay, now with this note: dosage 3.7 μM; CXCR-3/300-19 cells.
As for “acetylated-IP-10-(1-16)-[linker]-IP-10-(66-78) (Ac-VPLSRTVRCTCISISN[Aun]LKAVSKEMSKRSP; cysteine pairing not given here) [SEQ ID NO:1641, IP-10 analog, numbering of U.S. App; 11/590,210]”, the calcium mobilization activity of the cells is 12.7%.

The assay is the same for the next values; noted with them: dosage 11.1 μM; CXCR-3/300-19 cells.
As for “acetylated-IP-10-(1-16)-[linker]-IP-10-(66-78) (Ac-VPLSRTVRCTCISISN[Aun]LKAVSKEMSKRSP; cysteine pairing not given here) [SEQ ID NO:1641, IP-10 analog, numbering of U.S. App; 11/590,210]”, the calcium mobilization activity of the cells turned out to be 14.1%.

Staying with this assay, now noted: dosage 33.3 μM; CXCR-3/300-19 cells.
“acetylated-IP-10-(1-16)-[linker]-IP-10-(66-78) (Ac-VPLSRTVRCTCISISN[Aun]LKAVSKEMSKRSP; cysteine pairing not given here) [SEQ ID NO:1641, IP-10 analog, numbering of U.S. App; 11/590,210]”: the calcium mobilization activity of the cells was determined as 20%.

Staying with this assay, now noted: dosage 100 μM; CXCR-3/300-19 cells.
Consider “acetylated-IP-10-(1-16)-[linker]-IP-10-(66-78) (Ac-VPLSRTVRCTCISISN[Aun]LKAVSKEMSKRSP; cysteine pairing not given here) [SEQ ID NO:1641, IP-10 analog, numbering of U.S. App; 11/590,210]”, for which the calcium mobilization activity of the cells turned out to be 52.9%.

A further assay deals with SUP-T1 cells.
Assay: not given
In kind it is cell-based, human.
Conditions: not given
As to the method: The experiments include contacting an SDF-1 mimetic with a cell. For the experiments, SUP-T1 cells (ATCC) were plated on the day of the experiment using 1.2×10^5 cells per well in 96-well black-wall/clear-bottom plates coated with poly-D-lysine (BD Biosciences) and loaded using a fluorescent calcium indicator. The indicator used was from a FLIPR Calcium 3 assay kit, component A, (Molecular Probes) and was loaded in the cell for 1 hr at 37° C. The intracellular calcium mobilization in response to the appropriate analogue was measured at 37° C. by monitoring the fluorescence as a function of time simultaneously in all the wells using a Flexstation Fluorometric Imaging Plate Reader (Molecular Devices).
As usually defined, the EC50 is the concentration that produces a half-maximal response. Higher therefore signals a less potent agent. Turning to “KPVSLSYRAPFRFFGGKKLKWIQEYLEKALN-NH2 (C-terminus assumed) [SEQ ID NO: 9]”, the midpoint of the response, the EC50, lay at 225 nM. That is a sub-micromolar value.

“KPVSLSYRAPFRFFRRGRLKWIQEYLEKALN-NH2 [SEQ ID NO: 31]” gave an EC50 of 709 nM.

On to “KPVSLSYRAPFRFFGRRGLKWIQEYLEKALN-NH2 [SEQ ID NO: 23]”, for which the EC50 was 202 nM.

Consider “KPVSLSYRAPFRFFGGRGLKWIQEYLEKALN-NH2 (C-terminus assumed) [SEQ ID NO: 20]”, for which the response was half-maximal at 307 nM (EC50). This EC50 is about 1.5-fold higher than that of the molecule before.

“KPVSLSYRAPFRFFRRRGLKWIQEYLEKALN-NH2 [SEQ ID NO: 28]” showed a half-maximal effective concentration (EC50) of 597 nM.

“KPVSLSYRAPFRFFRGRRLKWIQEYLEKALN-NH2 [SEQ ID NO: 30]” gave a concentration for a half-maximal effect (EC50) of 178 nM.

As to “KPVSLSYRAPFRFFGRRRLKWIQEYLEKALN-NH2 [SEQ ID NO: 29]”, the response was half-maximal at 1870 nM (EC50).

As to “KPVSLSYRAPFRFFKKKKLKWIQEYLEKALN-NH2 (C-terminus assumed) [SEQ ID NO: 17]”, the response was half-maximal at 316 nM (EC50). This EC50 is about 5.9-fold lower than that of the molecule before.

As for “KPVSLSYRAPFRFFGKGGLKWIQEYLEKALN-NH2 (C-terminus assumed) [SEQ ID NO: 4]”, the response was half-maximal at 312 nM (EC50).

“KPVSLSYRAPFRFFRRGGLKWIQEYLEKALN-NH2 (C-terminus assumed) [SEQ ID NO: 22]” came in with a concentration for a half-maximal effect (EC50) of 171 nM. This EC50 is about 1.8-fold lower than that of the molecule before.

“KPVSLSYRAPFRFFRGGGLKWIQEYLEKALN-NH2 (C-terminus assumed) [SEQ ID NO: 18]” had an EC50 of 219 nM. The EC50 values of the last two molecules are within 1.5-fold of each other.

As to “KPVSLSYRAPFRFFGKGKLKWIQEYLEKALN-NH2 (C-terminus assumed) [SEQ ID NO: 12]”, a half-maximal effect (EC50) was put at 307 nM.

The molecule “KPVSLSYRAPFRFFGKKGLKWIQEYLEKALN-NH2 (C-terminus assumed) [SEQ ID NO: 8]” came in with an EC50 of 304 nM.

Take “KPVSLSYRAPFRFFKGKGLKWIQEYLEKALN-NH2 [SEQ ID NO: 11]”: a half-maximal effect (EC50) was put at 228 nM.

Consider “KPVSLSYRAPFRFFRRRRLKWIQEYLEKALN-NH2 [SEQ ID NO: 32]”, for which it took 1120 nM to reach a half-maximal effect (EC50).

On to “KPVSLSYRAPFRFFKKGGLKWIQEYLEKALN-NH2 (C-terminus assumed) [SEQ ID NO: 7]”, for which the response was half-maximal at 281 nM (EC50).

Molecule “KPVSLSYRAPFRFFGGKGLKWIQEYLEKALN-NH2 [SEQ ID NO: 5]” came in with a 50% effective concentration (EC50) of 211 nM. The EC50 values of the last two molecules are within 1.5-fold of each other.

“KPVSLSYRAPFRFFGRGGLKWIQEYLEKALN-NH2 (C-terminus assumed) [SEQ ID NO: 19]” returned an EC50 of 253 nM.

Turning to “KPVSLSYRAPFRFFRGGRLKWIQEYLEKALN-NH2 [SEQ ID NO: 25]”, the response was half-maximal at 132 nM (EC50).

Regarding “KPVSLSYRAPFRFFGKKKLKWIQEYLEKALN-NH2 (C-terminus assumed) [SEQ ID NO: 14]”, the EC50 stood at 92 nM.

“KPVSLSYRAPFRFFKKGKLKWIQEYLEKALN-NH2 (C-terminus assumed) [SEQ ID NO: 16]” returned a concentration giving a half-maximal response (EC50) of 140 nM.

With “KPVSLSYRAPFRFFGGGRLKWIQEYLEKALN-NH2 (C-terminus assumed) [SEQ ID NO: 21]”, a half-maximal response (EC50) required 361 nM. This EC50 lies about 2.6-fold higher than the previous one.

In turn, “KPVSLSYRAPFRFFGGGKLKWIQEYLEKALN-NH2 (C-terminus assumed) [SEQ ID NO: 6]” had an EC50 of 283 nM.

“KPVSLSYRAPFRFFKGGKLKWIQEYLEKALN-NH2 (C-terminus assumed) [SEQ ID NO: 10]” gave an EC50 of 233 nM.

Consider “KPVSLSYRAPFRFFGGRRLKWIQEYLEKALN-NH2 [SEQ ID NO: 24]”, for which the response was half-maximal at 173 nM (EC50).

For the molecule “KPVSLSYRAPFRFFKGKKLKWIQEYLEKALN-NH2 (C-terminus assumed) [SEQ ID NO: 15]”, the EC50 was 157 nM.

For the molecule “KPVSLSYRAPFRFFKKKGLKWIQEYLEKALN-NH2 (C-terminus assumed) [SEQ ID NO: 13]”, the EC50 is 137 nM.

Regarding “KPVSLSYRAPFRFFRGRGLKWIQEYLEKALN-NH2 [SEQ ID NO: 26]”, the EC50 came out at 248 nM.

As for “KPVSLSYRAPFRFFGRGRLKWIQEYLEKALN-NH2 [SEQ ID NO: 27]”, the EC50 came to 4320 nM.

The next assay concerns endothelial cell chemotaxis.
Assay: not given
The settings on record: in vitro; cited from earlier work.
Consider B1, for which the “concentration blocking endothelial cell chemotaxis (as low as)” value is given as 1 nmol/L.

In the next assay the test system is high affinity receptors on human immature monocyte-derived dendritic cells (iDCs).
Assay: not given
As to conditions: cited from earlier work.
One may read the Kd as the concentration at which binding is half-saturated. Take B1: the Kd is 2 nM.

The record behind these values is patent US20070160574A1, “Design of CXC chemokine analogs for the treatment of human diseases” (priority 2000, published 2007).
